Where a name gives a salt, the structure may show the parent alone.

Assay [1] concerns LAD2 mast cells. Put plainly: β-Hexosaminidase release. Type of assay: cell-based, human. As to conditions: 37°C.
Assay [2] relates to LAD2 mast cells. Put plainly: LL-37 internalization into LAD2 cells. Type of assay: cell-based, human. The conditions noted are these: 37°C.
[3] abbreviates: chlorpromazine 2.5 µM, 30 min pre-treatment, then LL-37 5 µM, 40 min.
[4] abbreviates: genistein 10 µM, 30 min pre-treatment, then LL-37 5 µM, 40 min.
Where [5] appears, read: pertussis toxin 250 ng/ml, 1 h pre-treatment, then LL-37 5 µM for 40 min.

Take `CN(C)CCCN1c2ccccc2Sc2ccc(Cl)cc21` [chlorpromazine, Chlorpromazine hydrochloride]: the “effect on LL-37-induced degranulation (β-hexosaminidase release)” value (“effect on LL-37-induced degranulation” below) in assay [1] (setting [3]) was “inhibited degranulation”. In addition, in assay [2] (setting [3]), the “effect on LL-37 internalization (fluorescence intensity)” value (shortened to “effect on LL-37 internalization”) was “suppressed LL-37 internalization”.
`O=C(N/N=C/c1ccc(O)c(O)c1)c1cc2ccccc2cc1O` [dynasore, Dynasore]: the “effect on LL-37-induced degranulation” value in assay [1] (dynasore 10 µM, 30 min pre-treatment, then LL-37 5 µM, 40 min) is on record as “inhibited degranulation”.
On to `O=c1c(-c2ccc(O)cc2)coc2cc(O)cc(O)c12` [genistein], for which the “effect on LL-37-induced degranulation” value in assay [1] (setting [4]) is “did not affect”. For the same compound, in assay [2] (setting [4]), the “effect on LL-37 internalization” value is reported as “did not affect”.
Take pertussis toxin: in assay [1] (setting [5]), the “effect on LL-37-induced degranulation” value was “significantly suppressed”. For the same compound, the “effect on LL-37 internalization” value in assay [2] (setting [5]) is given as “significantly suppressed”.
